# pIC50, pKd: −log10 of the molar value. Like-named read-outs stand apart in the source and are kept apart here.
# Experiments:
# HIV-1 NL4-3 = test: HIV-1 replication in normal donor PBMCs (p24 Gag AlphaLISA); assay type: cell-based; conditions: for HIV Replication PBMC IC50 vs. HIV NL4-3: Table 1, 4 days, words (Not active, Borderline) where no bound is given
# How it was run: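 PHA/IL-2-activated donor PBMCs infected with HIV-1 NL4-3, wild-type or Δ-Nef, with inhibitor (1–1,000 nM, 0.1% DMSO) in IL-2 medium. Lysates taken after 4 days and p24 quantified by AlphaLISA against a p24 standard; IC50 by non-linear regression, CC50 by CellTiter-Blue in uninfected cells.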
# uninfected PBMCs = assay type: cell-based; conditions: human
# Description: FIG. 4. Inhibition of HIV-1 replication by compounds disclosed herein in PBMCs. Donor PBMCs were infected with HIV-1 in the presence of inhibitor concentrations ranging from 1 to 1,000 nM or the DMSO carrier solvent as a negative control (0.1% DMSO final). Replication was assessed by p24 Gag AlphaLISA (Perkin Elmer) […]. Each donor was also infected with Nef-defective HIV-1 to establish the baseline for Nef-dependent enhancement of replication in each culture. Cytotoxicity was assessed in uninfected PBMCs over the same incubation period using the CellTiter-Blue assay (Promega). Data were fit by non-linear regression analysis (GraphPad Prism v.7.04) to determine the IC50 and CC50 values shown.
# Non-HLA-typed buffy coats (Source: Pittsburgh Central Blood Bank, #E3755) are received and processed within 24 hours of blood donation. PBMCs are isolated via rocking for RBC separation following 1:1 dilution with PBS, followed by Ficoll gradient centrifugation. The lymphocyte fraction is removed and washed several times for a final concentration of ˜150-300×10^6 cells per donor. Cells are activated for 3 days with 1-5 μg/mL PHA (Sigma) and 50 U/mL IL-2. Cells are plated at 750,000 cells/ml and viability is checked at day 3 using the Cell Titer Blue assay (Promega). If cells are >90% viable, then they are infected with HIV-1 NL4-3, wild-type or Δ-Nef mutant (input typically 30-500 pg/mL p24 capsid equivalents) in the presence or absence of Nef inhibitor analogs. IL-2 is included in the media at the time of infection. After 4 days, cells are lysed with 1% Triton X-100 for 1.5 h, checked for viability via Cell Titer Blue, and frozen/stored at −20° C. HIV-1 replication is assessed with a high-sensitivity HIV-1 p24 AlphaLISA assay (Perkin Elmer) in ½-volume 96-well plates, using one-half of the recommended assay volumes for all reagents (including samples). Assays are read on the BioTek Cytation5 instrument; readout is in AlphaUnits and replication in p24 pg/mL is determined using an HIV-1 p24 capsid protein standard included in the Alpha kit.
# HIV-1 NefNL4-3 = HIV-1 NefNL4-3 (Human immunodeficiency virus type 1 group M subtype B, UniProt P03406, A33V/T15A/T51N/V11I); test: Surface plasmon resonance binding to recombinant full-length Nef (NL4-3); conditions: for RU30/RUNef (extent of binding): response units at 30 μM relative to Nef immobilized on the SPR chip; for Kd: Reichert SPR Nef NL43 (M) two-step fitting, two-step induced-fit model, Reichert SPR, Table 3
# TZM-bl cell line = assay type: cell-based; conditions: human, 1 μM
# How it was run: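 Read-out is luciferase from an integrated HIV-1 LTR reporter in TZM-bl cells, 48 h after HIV-1NL4-3 infection in the presence of 1 μM compound. Scale set by DMSO-treated wild-type-infected cells (0%) and Nef-defective virus (100% Nef-dependent effect). Cell Titer Blue measures cytotoxicity without virus.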
# HIV-1NL4-3 = test: HIV-1 infectivity assay in TZM-bl reporter cell line (LTR-luciferase, 48 h); assay type: cell-based; conditions: for inhibition at 1 µM: Human immunodeficiency virus 1, TZM-bl
# How it was run: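 Nef-dependent infectivity in TZM-bl cells: HIV-1NL4-3 infection with 1 μM compound, luciferase read at 48 h, normalized against DMSO wild-type and Nef-defective controls. Compound cytotoxicity in uninfected cells measured by Cell Titer Blue.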
# [1] = target: Nef from SIV (strain mac239) (Simian immunodeficiency virus, UniProt Q5QGG3); test: biochemical
# Description: Also shown are SPR data recorded on a Reichert 4-channel SPR instrument. […] Recombinant Nef is immobilized on the biosensor surface, and each compound is injected and association/dissociation kinetics are recorded. The resulting data for the 3 isoforms are each best-fit using both a two-site model and a two-step, induced-fit model. Dissociation constants (KD), calculated from the kinetic association and dissociation constants from all three isoforms, are shown in columns 6-7. Data were fit using three regimes and the resulting KD: from each model are shown in the Table: 1:1 Langmuir fit; 2-site fit, which yields low and high affinity components; and a 2-step induced fit model.
# HIV-1 Nef SF2 = target: T1, HIV-1 Nef SF2 (Human immunodeficiency virus type 1 group M subtype B, UniProt P03407); test: biochemical; assay type: binding; conditions: two-step induced-fit model, Reichert SPR, read-out: Reichert SPR Nef SF2 (M) two-step fitting
# T1 construct: made in house
# [2] = KD, M, Table 4, SPR fit 1:1 Langmuir, KD = koff/kon
# [3] = Table 4, 1:1 Langmuir fit, T = 1/koff
# [4] = 1.0 μM, TZM-bl reporter cell line, Table 4, read-out: % Infectivity Inhibition
# [5] = 48 h, Table 1, TZM-bl cells, 1 μM, 48 h, 100% = Nef-defective HIV-1, read-out: HIV-1 Infectivity % Inhibition Norm. to Δ-Nef @ 1 μM
# [6] = KD, M, Table 4, SPR fit 2-step induced fit, KD = koff/kon × koff2/(koff2 + kon2)
# [7] = Table 4, 2-step induced fit, T = 1/koff2
# [8] = 1 μM, TZM-bl, normalized: DMSO wild-type HIV-1 = 0%, Nef-defective HIV-1 = 100%, read-out: HIV-1 Infectivity % Inhibition norm. to Δ-Nef @ 1 μM
# [9] = Nef NL4-3 Binding, SPR 2-state fitting KD, Table 1, 2-step induced-fit model
# [10] = read-out: Nef NL4-3 Binding, SPR 1:1 or 2-site fitting KD2, Table 1, 2-site fit, second component
SMILES,HIV Replication PBMC IC50 vs. HIV NL4-3 (HIV-1 NL4-3),Toxicity in HIV Replication PBMC (Toxic @ concentration) (uninfected PBMCs),pKd (HIV-1 NefNL4-3),pKd (HIV-1 NefNL4-3; [2]),"T, minutes (residence time) (HIV-1 NefNL4-3; [3])",RU30/RUNef (extent of binding) (HIV-1 NefNL4-3),% Cell Viability (TZM-bl cell line) [%],inhibition at 1 µM (HIV-1NL4-3; [4]) [%],Percent Viability @ 1 μM (TZM-bl cells) (TZM-bl cell line) [%],inhibition at 1 µM (HIV-1NL4-3; [5]) [%],pKd (HIV-1 NefNL4-3; [6]),"T, minutes (residence time) (HIV-1 NefNL4-3; [7])",pKd [1],Kd (HIV-1 NefNL4-3; KD) [M],Kd (HIV-1 Nef SF2) [M],inhibition at 1 µM (HIV-1NL4-3; [8]) [%],also measured
"O=C(OCc1ccccc1)N1CCC(Cc2c(-c3ccc(C(F)(F)F)cc3)nn(-c3nc4ccccc4[nH]3)c2O)CC1 [Compound I-162, benzyl 4-{[1-(1H-1,3-benzodiazol-2-yl)-5-hydroxy-3-[4-(trifluoromethyl)phenyl]-1H-pyrazol-4-yl]methyl}piperidine-1-carboxylate]",Not active,Toxic @ 1 μM,8.73,8.73,8.05E + 03 minutes,4.69E- 03,90.8,77.5,,,,,,,,,"Nef NL4-3 Binding, SPR 1:1 or 2-site fitting KD1 (HIV-1 NefNL4-3; Table 1, 1:1 Langmuir fit where the KD2 cell says '1 to 1 fitting', else 2-site fit): No Interaction"
"O=C(OCc1ccccc1)N1CCC(c2nn(-c3nc4cccc(Cl)c4[nH]3)c(O)c2CCc2ccc(F)cc2)CC1 [Compound I-166, benzyl 4-[1-(7-chloro-1H-1,3-benzodiazol-2-yl)-4-[2-(4-fluorophenyl)ethyl]-5-hydroxy-1H-pyrazol-3-yl]piperidine-1-carboxylate]",Not active,Toxic @ 1 μM,8.22,8.22,2.07E + 03 minutes,4.21E- 03,97.0,24.6,97.0,24.6,,,,,,,
"CC(C)(C)OC(=O)N1CCC(CCc2c(-c3ccc(S(C)(=O)=O)cc3)nn(-c3nc4cc(Cl)ccc4[nH]3)c2O)CC1 [Compound I-215, tert-butyl 4-{2-[1-(5-chloro-1H-1,3-benzodiazol-2-yl)-5-hydroxy-3-(4-methanesulfonylphenyl)-1H-pyrazol-4-yl]ethyl}piperidine-1-carboxylate]",Not active,Toxic @ 1 μM,,,,1.00E- 02,74.5,53.5,,,6.79,5.87E + 01 minutes,,,,,"HIV-1 Infectivity % Inhibition Norm. to Δ-Nef @ 1 μM (HIV-1NL4-3; Table 1, TZM-bl cells, 1 μM, 48 h, 100% = Nef-defective HIV-1): 73.6%"
"Oc1c(CCc2ccc(F)cc2)c(-c2ccc(C(F)(F)F)cc2)nn1-c1nc2cccnc2[nH]1 [Compound I-301, 4-[2-(4-fluorophenyl)ethyl]-1-{1H-imidazo[4,5-b]pyridin-2-yl}-3-[4-(trifluoromethyl)phenyl]-1H-pyrazol-5-ol]",,Toxic @ 1 μM,,,,1.34E- 02,90.7,81.2,,,10.22,,8.76,6e-11,3.69e-08,81.2,"pKd (HIV-1 NefNL4-3; Nef NL4-3 Binding, SPR 1:1 or 2-site fitting KD2, Table 1, 2-site fit, second component): 4.64; Toxicity % Viability @ 1 μM (TZM-bl) (TZM-bl cell line): 90.7%"
"Oc1c(CCc2ccc(F)cc2)c(-c2ccc(C(F)(F)F)cc2)nn1-c1nc2ccncc2[nH]1 [Compound I-309, 4-[2-(4-fluorophenyl)ethyl]-1-{3H-imidazo[4,5-c]pyridin-2-yl}-3-[4-(trifluoromethyl)phenyl]-1H-pyrazol-5-ol]",Not active,Toxic @ 1 μM,9.24,9.24,1.78E + 04 minutes,1.59E- 03,99.1,92.2,99.1,92.2,,,,,,,
"Oc1c(CCc2ccc(F)cc2)c(-c2ccc(C(F)(F)F)cc2)nn1-c1cc(C(F)(F)F)n[nH]1 [Compound I-601, 4-[2-(4-fluorophenyl)ethyl]-5′-(trifluoromethyl)-3-[4-(trifluoromethyl)phenyl]-2′H-[1,3′-bipyrazol]-5-ol]",,,5.76,,,4.19E- 02,100,67.6,101.3,,4.58,5.59E + 00 minutes,4.66,8.96e-09,4.55e-05,67.6,"pIC50 (HIV-1 NL4-3; Human immunodeficiency virus 1, NL43, PBMC, 96 h, Table 2, 4 days): ≥ 8.00; pKd (HIV-1 NefNL4-3; Nef NL4-3 Binding, SPR 2-state fitting KD, Table 2, 2-step induced-fit model): 8.05; pKd (HIV-1 NefNL4-3; read-out: Nef NL4-3 Binding, SPR 1:1 or 2-site fitting KD2, Table 2, 2-site fit, second component): 4.58; inhibition at 1 µM (HIV-1NL4-3; 48 h, Table 2, TZM-bl cells, 1 μM, 48 h, 100% = Nef-defective HIV-1, read-out: HIV-1 Infectivity % Inhibition Norm. to Δ-Nef @ 1 μM): 67.6%"
"CC(C)OC(=O)N1CCC(c2nn(-c3nc4cc(Cl)ccc4[nH]3)c(O)c2CCC2CCOCC2)CC1 [Compound I-701, propan-2-yl4-[1-(5-chloro-1H-1,3-benzodiazol-2-yl)-5-hydroxy-4-[2-(oxan-4-yl)ethy1]-1H-pyrazol-3-yl]piperidine-1-carboxylate]",,Toxic @ 10 nM,7.58,,,5.85E- 03,98.7,100,98.7,106,5.54,4.73E + 00 minutes,4.71,2.88e-06,1.37e-07,106,pKd (HIV-1 NefNL4-3; [9]): 5.54; pKd (HIV-1 NefNL4-3; [10]): 5.40
"CC(=O)N1CCC(c2nn(-c3nc4ccc(Cl)cc4[nH]3)c(O)c2CCc2ccc(F)cc2)CC1 [Compound I-702, 1-{4-[1-(5-chloro-1H-1,3-benzodiazol-2-yl)-4-[2-(4-fluorophenyl)ethyl]-5-hydroxy-1H-pyrazol-3-yl]piperidin-1-yl}ethan-1-one]",,Toxic @ 10 nM,6.22,,,1.56E- 02,96.4,100,96.4,148,5.44,5.05E + 00 minutes,,,,,pKd (HIV-1 NefNL4-3; [9]): 6.10; pKd (HIV-1 NefNL4-3; [10]): 5.57
